{"source": "patent US20230348418A1", "about": "“ISOINDOLINONE COMPOUNDS” (Monte Rosa Therapeutics, Inc., priority 2021, published 2023)", "key": {"IKZF1 (Ikaros)": {"target": "T1, IKZF1 (Ikaros) (Homo sapiens, UniProt Q13422)", "T1 construct": "endogenous in cells; host or cells: MM1S (ATCC CRL-2974)", "T1 sequence (Q96SW2 whole entry partner)": "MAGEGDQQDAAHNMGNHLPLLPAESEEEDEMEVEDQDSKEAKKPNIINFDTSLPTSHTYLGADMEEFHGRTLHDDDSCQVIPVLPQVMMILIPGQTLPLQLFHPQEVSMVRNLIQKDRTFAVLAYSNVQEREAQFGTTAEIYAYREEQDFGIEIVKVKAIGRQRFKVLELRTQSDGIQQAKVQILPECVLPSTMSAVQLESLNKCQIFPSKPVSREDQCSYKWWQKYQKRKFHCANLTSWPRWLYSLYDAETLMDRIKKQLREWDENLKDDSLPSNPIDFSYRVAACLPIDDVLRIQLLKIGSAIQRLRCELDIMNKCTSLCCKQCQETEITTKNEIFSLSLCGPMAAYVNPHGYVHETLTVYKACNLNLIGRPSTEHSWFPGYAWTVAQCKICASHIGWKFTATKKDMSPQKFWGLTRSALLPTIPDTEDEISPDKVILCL", "T1 sequence (Q16531 2-1140 partner limits assumed)": "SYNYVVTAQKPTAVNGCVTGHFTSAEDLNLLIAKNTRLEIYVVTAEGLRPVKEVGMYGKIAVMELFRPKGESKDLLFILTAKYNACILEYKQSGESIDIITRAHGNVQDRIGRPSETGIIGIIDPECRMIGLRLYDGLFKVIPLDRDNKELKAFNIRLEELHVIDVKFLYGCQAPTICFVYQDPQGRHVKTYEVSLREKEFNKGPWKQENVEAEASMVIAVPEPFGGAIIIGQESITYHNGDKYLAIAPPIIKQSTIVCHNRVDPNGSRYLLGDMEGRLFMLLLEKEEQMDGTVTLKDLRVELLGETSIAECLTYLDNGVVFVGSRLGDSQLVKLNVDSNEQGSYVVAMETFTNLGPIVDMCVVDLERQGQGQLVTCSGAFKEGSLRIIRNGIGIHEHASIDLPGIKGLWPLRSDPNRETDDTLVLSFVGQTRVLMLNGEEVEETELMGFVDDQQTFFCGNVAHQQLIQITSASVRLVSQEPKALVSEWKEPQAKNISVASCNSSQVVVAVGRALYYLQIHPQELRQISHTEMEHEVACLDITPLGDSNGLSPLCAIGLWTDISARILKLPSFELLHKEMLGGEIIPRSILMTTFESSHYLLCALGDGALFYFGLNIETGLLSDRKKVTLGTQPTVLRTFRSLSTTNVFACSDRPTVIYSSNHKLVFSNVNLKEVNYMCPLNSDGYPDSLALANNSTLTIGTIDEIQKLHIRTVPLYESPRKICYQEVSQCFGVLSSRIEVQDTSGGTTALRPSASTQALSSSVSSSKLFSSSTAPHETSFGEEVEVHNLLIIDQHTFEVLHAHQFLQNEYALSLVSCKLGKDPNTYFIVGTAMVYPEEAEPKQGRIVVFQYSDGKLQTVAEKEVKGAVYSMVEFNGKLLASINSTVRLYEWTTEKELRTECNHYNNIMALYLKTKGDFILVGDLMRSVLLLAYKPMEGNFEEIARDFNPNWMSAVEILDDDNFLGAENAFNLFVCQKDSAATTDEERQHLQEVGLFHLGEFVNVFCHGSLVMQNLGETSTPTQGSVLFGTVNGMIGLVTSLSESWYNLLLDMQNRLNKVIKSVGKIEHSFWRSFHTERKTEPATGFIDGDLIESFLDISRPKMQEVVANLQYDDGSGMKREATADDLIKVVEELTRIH", "T1 sequence (Q13422 whole entry)": "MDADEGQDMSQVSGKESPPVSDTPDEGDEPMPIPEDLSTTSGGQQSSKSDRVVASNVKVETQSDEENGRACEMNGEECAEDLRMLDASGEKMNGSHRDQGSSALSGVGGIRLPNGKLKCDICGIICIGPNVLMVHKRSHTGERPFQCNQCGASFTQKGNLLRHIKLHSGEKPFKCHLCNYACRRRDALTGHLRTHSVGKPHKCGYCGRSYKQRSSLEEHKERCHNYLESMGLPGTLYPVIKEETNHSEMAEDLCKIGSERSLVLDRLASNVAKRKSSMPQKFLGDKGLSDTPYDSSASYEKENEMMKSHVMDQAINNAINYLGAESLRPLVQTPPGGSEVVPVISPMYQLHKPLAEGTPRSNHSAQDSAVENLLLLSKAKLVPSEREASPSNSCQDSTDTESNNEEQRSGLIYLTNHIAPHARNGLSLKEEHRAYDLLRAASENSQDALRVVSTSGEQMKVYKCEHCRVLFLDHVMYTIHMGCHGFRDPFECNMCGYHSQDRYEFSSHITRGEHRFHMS", "assay": "Western blot selectivity assay in MM1S cells: IKZF1", "type": "cell-based", "parameters": "key: A represents a no degradation observed at 30 μM; B represents trace degradation at 30 μM (below 20%); C represents weak degradation at 30 μM (below 50%); D represents degradation at 30 μM (>90%); E represents degradation at 3 μM (>90%); F represents degradation at 0.3 μM (>90%)", "conditions": "MM1S cells, 0.3, 3 and 30 μM, 6 hours", "experimental": "(§1) MM1S cells were purchased from ATCC (cat. Number CRL-2974), sub-cultured in 90% RPMI 1640 with 10% FBS, supplemented with 1×P/S and incubated at 37° C., 5% CO2. Compounds were stored as 10 mM DMSO stock. For the assay, MM1S cells (3 million cells/well) were plated in 6-well plates and incubated over night. Cells were treated with respective compounds using a serial dilution: 0.3 μM, 3 μM and 30 μM as well as a vehicle only (DMSO) control for 6 hours. Media with suspension cells was subsequently transferred to 15 mL conical tubes, wells rinsed twice with ice-cold PBS and merged with cell suspension in respective 15 mL conical tube. Cells were spinned down, supernatant aspirated, pellets resuspended in ice-cold PBS and transferred to microtubes. Cells were spinned down, supernatant aspirated and pellets resuspended in 120 μL RIPA lysis buffer supplemented with protease and phosphatase inhibitors. Cell lysates were incubated on ice for 20 minutes followed by centrifugation at >20,000×g for 5 min. Supernatants were transferred to fresh microtubes and stored at −80° C. Total protein concentration was determined using a BCA assay with a BSA standard curve and concentration of all samples was adjusted to 1 mg/mL. 25 μL 4×LDS sample buffer supplemented with 100 mM DTT was added to 75 μL sample. Samples were centrifuged (8,000×g, 1 min) and incubated at 95° C. for 5 min followed by another centrifugation step (8,000×g, 1 min). 20 μL of each sample was loaded on a 4-12% gel alongside a protein molecular weight marker. Gels were run in the presence of MOPS buffer at 80 Volts for 30 min, followed by 120 Volts for 1.5 h and proteins subsequently transferred onto nitrocellulose membranes at 20 Volts for 7 min using an iBlot2 Gel Transfer Device. Membranes were then cut horizontally into two pieces, covering 80-50 kDa and 50-25 kDa. Blocking the membranes was performed by gently shaking in 5% (w/v) skim milk in TSB-T for 1 hr at room temperature. All primary antibodies were used at a 1/1000 in 5% (w/v) BSA dissolved in TBST and incubated with membranes over night at 4° C. Anti-IKZF1 (Ikaros; D6N9Y; 14859S), anti-IKZF3 (Aiolos; D1C1E; 15103S) antibodies were purchased from Cell Signalling Technology, anti-ZFP91 antibody from Bethyl laboratories, anti-GSPT1 from Sigma Aldrich (HPA052488) and anti CK1alpha from AbCam (ab206652). After three washes with 1×TBST for 5 min, HRP-coupled secondary antibodies diluted in 5% (w/v) BSA/TBST (Goat Anti-Rb IgG, dil. 1/10,000; Goat Anti-Mouse IgG, dil. 1/5000) were added for 1 hr at room temperature. After three washes with 1×TBST (5 minutes each), membranes were incubated with ECL reagent for 1 min at room temperature. Chemiluminescence signals were then detected using a LAS-4000 system with default settings and signals quantified using Image Studio Lite software (version 5.2). Membrane parts previously incubated with antibody against CK1alpha were stripped off antibodies by incubating with stripping buffer for 30 minutes followed by three washed with TBST (5 min each), blocking with 5% (w/v) skim milk for 1 hr, and incubation with primary antibody against GAPDH overnight at 4° C. Subsequent washes, incubation with secondary antibody and signal acquisition were performed as described above."}, "ZFP91": {"target": "T2, ZFP91 (Homo sapiens, UniProt Q96JP5)", "T2 construct": "endogenous in cells; host or cells: MM1S (ATCC CRL-2974)", "T2 sequence (Q96SW2 whole entry partner)": "as the sequence (Q96SW2 whole entry partner) above", "T2 sequence (Q16531 2-1140 partner limits assumed)": "as the sequence (Q16531 2-1140 partner limits assumed) above", "T2 sequence (Q96JP5 2-570 limits assumed)": "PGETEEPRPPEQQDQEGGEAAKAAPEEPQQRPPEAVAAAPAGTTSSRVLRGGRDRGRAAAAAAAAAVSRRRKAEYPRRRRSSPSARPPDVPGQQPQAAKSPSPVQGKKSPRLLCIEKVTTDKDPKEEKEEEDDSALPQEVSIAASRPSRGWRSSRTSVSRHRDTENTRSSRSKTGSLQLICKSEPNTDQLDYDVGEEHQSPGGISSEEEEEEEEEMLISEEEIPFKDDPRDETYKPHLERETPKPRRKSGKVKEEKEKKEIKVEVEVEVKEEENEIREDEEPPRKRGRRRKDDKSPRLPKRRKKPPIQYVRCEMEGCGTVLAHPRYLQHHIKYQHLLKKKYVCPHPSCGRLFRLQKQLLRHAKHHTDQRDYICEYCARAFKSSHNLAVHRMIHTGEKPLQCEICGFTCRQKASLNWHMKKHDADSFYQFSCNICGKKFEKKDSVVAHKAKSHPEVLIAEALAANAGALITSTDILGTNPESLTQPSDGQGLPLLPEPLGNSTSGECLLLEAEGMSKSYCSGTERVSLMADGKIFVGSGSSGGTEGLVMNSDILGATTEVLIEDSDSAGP", "assay": "Western blot selectivity assay in MM1S cells: ZFP91", "type": "cell-based", "parameters": "key: A represents a no degradation observed at 30 μM; B represents trace degradation at 30 μM (below 20%); C represents weak degradation at 30 μM (below 50%); D represents degradation at 30 μM (>90%); E represents degradation at 3 μM (>90%); F represents degradation at 0.3 μM (>90%)", "conditions": "MM1S cells, 0.3, 3 and 30 μM, 6 hours", "experimental": "MM1S cells were purchased from ATCC (cat. Number CRL-2974), sub-cultured in 90% RPMI 1640 with 10% FBS, supplemented with 1×P/S and incubated at 37° C., 5% CO2. Compounds were stored as 10 mM DMSO stock. For the assay, MM1S cells (3 million cells/well) were plated in 6-well plates and incubated over night. Cells were treated with respective compounds using a serial dilution: 0.3 μM, 3 μM and 30 μM as well as a vehicle only (DMSO) control for 6 hours. Media with suspension cells was subsequently transferred to 15 mL conical tubes, wells rinsed twice with ice-cold PBS and merged with cell suspension in respective 15 mL conical tube. Cells were spinned down, supernatant aspirated, pellets resuspended in ice-cold PBS and transferred to microtubes. Cells were spinned down, supernatant aspirated and pellets resuspended in 120 μL RIPA lysis buffer supplemented with protease and phosphatase inhibitors. Cell lysates were incubated on ice for 20 minutes followed by centrifugation at >20,000×g for 5 min. Supernatants were transferred to fresh microtubes and stored at −80° C. Total protein concentration was determined using a BCA assay with a BSA standard curve and concentration of all samples was adjusted to 1 mg/mL. […] Chemiluminescence signals were then detected using a LAS-4000 system with default settings and signals quantified using Image Studio Lite software (version 5.2). […]"}, "[1]": {"target": "T3, Full length wild-type cereblon CRBN (Homo sapiens, UniProt Q96SW2)", "T3 construct": "Full length wild-type cereblon CRBN (80.0 nM, 10 μL) was incubated in assay buffer", "T3 sequence (Q96SW2 whole entry)": "as the sequence (Q96SW2 whole entry partner) above", "assay": "Fluorescence polarization (FP) assay, cereblon binding", "procedure,_shortened": "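Full-length wild-type human CRBN (80.0 nM) was preincubated with compound for 30 min at room temperature in 20 mM HEPES pH 8.0, 150 NaCl, 0.5 mM TCEP and 0.05% Tween 20. A Cy5-type thalidomide-linked fluorescent probe was then added. The FP signal was normalized to the DMSO control to derive IC50.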"}, "GSPT1 [2]": {"target": "T4, GSPT1 (Homo sapiens, UniProt P15170+Q96SW2)", "T4 sequence (P15170 whole entry)": "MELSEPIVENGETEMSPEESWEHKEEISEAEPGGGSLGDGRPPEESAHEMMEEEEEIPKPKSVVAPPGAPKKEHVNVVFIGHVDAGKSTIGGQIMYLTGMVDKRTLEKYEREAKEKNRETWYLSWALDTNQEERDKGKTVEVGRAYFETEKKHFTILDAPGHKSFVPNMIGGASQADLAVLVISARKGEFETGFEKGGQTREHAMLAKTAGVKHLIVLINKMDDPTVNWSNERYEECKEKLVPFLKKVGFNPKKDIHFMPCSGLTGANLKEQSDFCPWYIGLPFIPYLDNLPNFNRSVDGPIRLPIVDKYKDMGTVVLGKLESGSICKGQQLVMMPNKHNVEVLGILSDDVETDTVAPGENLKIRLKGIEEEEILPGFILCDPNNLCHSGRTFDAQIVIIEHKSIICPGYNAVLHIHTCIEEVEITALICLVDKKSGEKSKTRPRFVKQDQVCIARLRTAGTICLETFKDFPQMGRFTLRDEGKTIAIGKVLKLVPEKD", "T4 sequence (Q96SW2 whole entry)": "as the sequence (Q96SW2 whole entry partner) above", "T4 sequence (Q16531 2-1140 partner limits assumed)": "as the sequence (Q16531 2-1140 partner limits assumed) above", "assay": "Western blot selectivity assay in MM1S cells: GSPT1", "type": "cell-based", "parameters": "endogenous in cells; host or cells: MM1S (ATCC CRL-2974)", "conditions": "MM1S cells, 0.3, 3 and 30 μM, 6 hours", "experimental": "as §1"}, "IKZF3 (Aiolos)": {"target": "T5, IKZF3 (Aiolos) (Homo sapiens, UniProt Q9UKT9)", "T5 construct": "endogenous in cells; host or cells: MM1S (ATCC CRL-2974)", "T5 sequence (Q96SW2 whole entry partner)": "as the sequence (Q96SW2 whole entry partner) above", "T5 sequence (Q16531 2-1140 partner limits assumed)": "as the sequence (Q16531 2-1140 partner limits assumed) above", "T5 sequence (Q9UKT9 whole entry)": "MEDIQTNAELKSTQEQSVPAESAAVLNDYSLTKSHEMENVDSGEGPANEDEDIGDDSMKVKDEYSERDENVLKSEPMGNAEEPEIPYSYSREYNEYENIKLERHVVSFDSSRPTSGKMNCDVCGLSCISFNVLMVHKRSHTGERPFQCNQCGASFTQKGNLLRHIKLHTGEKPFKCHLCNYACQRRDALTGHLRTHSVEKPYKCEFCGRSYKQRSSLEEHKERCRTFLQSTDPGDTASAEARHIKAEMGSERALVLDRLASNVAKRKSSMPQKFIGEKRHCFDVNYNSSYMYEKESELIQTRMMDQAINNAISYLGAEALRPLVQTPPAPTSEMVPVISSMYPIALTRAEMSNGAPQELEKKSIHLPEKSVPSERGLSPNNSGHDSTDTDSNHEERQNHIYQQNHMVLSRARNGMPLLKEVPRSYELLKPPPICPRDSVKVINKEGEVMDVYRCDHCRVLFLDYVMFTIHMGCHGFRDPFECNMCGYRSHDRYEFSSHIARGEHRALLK", "assay": "Western blot selectivity assay in MM1S cells: IKZF3", "type": "cell-based", "parameters": "key: A represents a no degradation observed at 30 μM; B represents trace degradation at 30 μM (below 20%); C represents weak degradation at 30 μM (below 50%); D represents degradation at 30 μM (>90%); E represents degradation at 3 μM (>90%); F represents degradation at 0.3 μM (>90%)", "conditions": "MM1S cells, 0.3, 3 and 30 μM, 6 hours", "experimental": "as §1, with “After three washes with 1×TBST (5 minutes each), membranes were incubated with ECL reagent for 1 min at room temperature.” left out, “Membrane parts previously incubated with antibody against CK1alpha were stripped off antibodies by incubating with stripping buffer for 30 minutes followed by three washed with TBST (5 min each), blocking with 5% (w/v) skim milk for 1 hr, and incubation with primary antibody against GAPDH overnight at 4° C. Subsequent washes, incubation with secondary antibody and signal acquisition were performed as described above.” left out"}, "GSPT1 [3]": {"target": "T4, GSPT1", "assay": "Immunofluorescence assay for GSPT1 degradation in CAL-51 cells (Example 4)", "type": "cell-based", "parameters": "host or cells: CAL-51", "experimental": "The representative compounds were tested in an immunofluorescence assay for their activity to bind to degrade GSPT1. […] Compounds were stored at 10 mM DMSO stocks. […] Cells were subsequently rinsed with PBS and fixed in 10% Formalin solution (50 μl, Sigma HT5011)) for 20 mins at room temperature. […] Following three further PBS washes, […] blocking buffer (1% BSA, Sigma A4503, in PBS) was added for 45 min for signal-to-noise reduction.\nPrimary antibody (human GSPT1, Sigma HPA052488) was diluted in blocking buffer (dil.1/300, 35 μl/well) and incubated with the cells overnight at 4° C. […] After three final PBS washes, samples were conserved in 100 μl PBS in the dark, until measurement. Image acquisition was performed on the Operetta High-Content Imager (Perkin-Elmer). […] For the determination of GSPT1 DC50 values, a custom algorithm implemented in the PerkinElmer image analysis software Harmony-Acapella® was developed. After user-defined setting of adjustment parameters, the analysis was run identically without human intervention for all image fields. DAPI staining of the nuclei was used to determine the location of cells using standard nuclei detection modules. Segmentation artifacts were removed by threshold-based filters for area, roundness and intensity. The outline of the cells was determined analogously from the sum of the normalized, smoothed DAPI and Actin channel, starting from each nucleus.\nGSPT1 degradation (DC50) was calculated after normalization to controls and data import in CDD vault Database, using non-linear regression."}, "[4]": {"conditions": "bounds stated in the text lists b2059-b2061, read-out: IC50 value"}, "[5]": {"conditions": "cereblon binding, class code, read-out: rFP IC50"}, "[6]": {"conditions": "CAL-51 cells, 6 hours, read-out: Code (activity for GSPT1 degradation, DC50)"}}, "note": "Read-outs that look alike come from different tables or passages of the source."}
{"molecule": "COc1cc(C)c(Cl)cc1NC(=O)OCc1ccc2c(c1)C(=O)N(C1CCC(=O)NC1=O)C2", "note": "(centres unmarked) [Compound 1]", "values": [{"measurement": "IKZF1 degradation", "setting": "IKZF1 (Ikaros)", "value": "A"}, {"measurement": "ZFP91 degradation", "setting": "ZFP91", "value": "A"}, {"measurement": "IC50", "setting": "[1]; [4]", "value": "< 1700", "unit": "nM"}, {"measurement": "IC50", "setting": "[1]; [5]", "value": "1100 to 1700", "unit": "nM"}, {"measurement": "GSPT1 degradation", "setting": "GSPT1 [2]", "value": "F (F represents degradation at 0.3 μM (>90%))"}]}
{"molecule": "CCc1ncc(NC(=O)OCc2ccc3c(c2)C(=O)N(C2CCC(=O)NC2=O)C3)cc1C", "note": "(centres unmarked) [Compound 49]", "values": [{"measurement": "IKZF3 degradation", "setting": "IKZF3 (Aiolos)", "value": "A"}, {"measurement": "IKZF1 degradation", "setting": "IKZF1 (Ikaros)", "value": "A"}, {"measurement": "IC50", "setting": "[1]; [4]", "value": "< 1700", "unit": "nM"}, {"measurement": "IC50", "setting": "[1]; [5]", "value": "1100 to 1700", "unit": "nM"}, {"measurement": "GSPT1 degradation", "setting": "GSPT1 [2]", "value": "F (F represents degradation at 0.3 μM (>90%))"}]}
{"molecule": "O=C1CCC(N2Cc3ccc(COC(=O)Nc4cc(Cl)cc(OC(F)(F)F)c4)cc3C2=O)C(=O)N1", "note": "(centres unmarked) [Compound 11]", "values": [{"measurement": "DC50", "setting": "GSPT1 [3]; compounds with code A, read-out: DC50 value", "value": "≤ 30", "unit": "nM"}]}
{"molecule": "CC(C)(C)c1ccc(NC(=O)OCc2ccc3c(c2)C(=O)N(C2CCC(=O)NC2=O)C3)cc1", "note": "(centres unmarked) [Compound 47]", "values": [{"measurement": "IKZF3 degradation", "setting": "IKZF3 (Aiolos)", "value": "A"}, {"measurement": "IKZF1 degradation", "setting": "IKZF1 (Ikaros)", "value": "A"}, {"measurement": "IC50", "setting": "[1]; [4]", "value": "< 1700", "unit": "nM"}, {"measurement": "IC50", "setting": "[1]; [5]", "value": "1100 to 1700", "unit": "nM"}, {"measurement": "GSPT1 degradation", "setting": "GSPT1 [2]", "value": "F (F represents degradation at 0.3 μM (>90%))"}]}
{"molecule": "CC(F)(F)c1ccc(NC(=O)OCc2ccc3c(c2)C(=O)N(C2CCC(=O)NC2=O)C3)cc1", "note": "(centres unmarked) [Compound 99]", "values": [{"measurement": "IC50", "setting": "[1]; [4]", "value": "< 1700", "unit": "nM"}, {"measurement": "IC50", "setting": "[1]; [5]", "value": "1100 to 1700", "unit": "nM"}, {"measurement": "DC50", "setting": "GSPT1 [3]; [6]", "value": "30 to 300", "unit": "nM"}]}
{"molecule": "Cc1c(Cl)cc(NC(=O)OCc2ccc3c(c2)C(=O)N(C2CCC(=O)NC2=O)C3)cc1OCCN1CCOCC1", "note": "(centres unmarked) [Compound 48]", "values": [{"measurement": "IKZF1 degradation", "setting": "IKZF1 (Ikaros)", "value": "A"}, {"measurement": "IC50", "setting": "[1]; [4]", "value": "< 1700", "unit": "nM"}, {"measurement": "IC50", "setting": "[1]; [5]", "value": "1100 to 1700", "unit": "nM"}, {"measurement": "GSPT1 degradation", "setting": "GSPT1 [2]", "value": "F (F represents degradation at 0.3 μM (>90%))"}]}
{"molecule": "CCc1cc(NC(=O)OCc2ccc3c(c2)C(=O)N(C2CCC(=O)NC2=O)C3)sn1", "note": "(centres unmarked) [Compound 151]", "values": [{"measurement": "IC50", "setting": "[1]; [4]", "value": "< 500", "unit": "nM"}, {"measurement": "IC50", "setting": "[1]; [5]", "value": "< 500", "unit": "nM"}, {"measurement": "DC50", "setting": "GSPT1 [3]; [6]", "value": "30 to 300", "unit": "nM"}]}
